From patent publication US10202408B2, “Prodrugs and methods of use thereof” (Health Innovation Ventures B.V., priority 2012, dated 2019)
“Also recorded” adds a separate entry of the source.

Legend:
[1] = system: 15% E coli NfsA-expressing HCT116 xenografts; assay: Tumour growth delay, 15% E coli NfsA-expressing HCT116 xenografts; format: in vivo, NIH-III mice; details: single dose; 10, 22 and 60 at 1000, 422 and 1330 umol/kg
Procedure: (§1) Animals weighed 18-25 g at the time of tumour inoculation. Tumours were grown subcutaneously on the right flank of mice by inoculating cells grown in tissue culture (1×10^7 cells in 100 uL serum free α-MEM). Tumour sizes were monitored three times weekly using electronic callipers and treatments were initiated once tumour diameter reached ≥7 mm.
(§2) Tumour bearing mice were randomised into the appropriate treatment groups and tumour size and body weight recorded. Test compounds were formulated on the day of the experiment and kept in foil-wrapped tubes out of direct fluorescent light. If recruitment of animals occurred over multiple days, the drug stocks were aliquoted into tubes and frozen once at […] until required. Mice were treated with a single (or BID) dose of prodrug by intraperitoneal injection and thereafter tumour size and body weight was monitored every second day. Tumour volume was calculated as π (l×w×w)/6, where l is the major axis and w is the perpendicular minor axis. Animals were culled when they had reached the appropriate survival endpoint or when body weight loss exceeded 20% of the pre-treatment value.

[2] = system: 15% E coli NfsA-expressing H1299 xenografts; assay: Tumour growth delay, 15% E coli NfsA-expressing H1299 xenografts; format: in vivo, NIH-III mice; details: for tumour growth delay: mixed HCT116 and H1299 xenografts, 15% E coli NfsA cells, single (or BID) intraperitoneal dose; for E coli NfsA mediated anti-tumour efficacy (mean tumour volume): single dose, 10, 22, 60 and 11 at 750, 422, 1330 and 1330 umol/kg
Procedure: as §1, §2

[3] = system: bacterial nitroreductases from the NfsA and NfsB families; assay: GFP SOS assay with nitroreductase over-expression library; format: cell-based, E. coli strain SOS-R4; details: 55 candidate nitroreductase library, 6 h challenge
Text: The method employed the over-expression of a candidate nitroreductase gene from plasmid pUCX in an SOS reporter strain, as first described in Prosser et al., 2010, Biochem Pharmacol 79, 678-687. In order to enhance the sensitivity of the SOS reporter system, an sfiA::GFP reporter construct was integrated into a CDF-based plasmid (which contains a compatible origin of replication with pUCX) to give the pANODuet reporter plasmid for GFP screening. In addition, nfsA, nfsB, azoR, and nemA genes were deleted to minimise background metabolism, and the tolC gene deleted to minimise efflux of test compounds; this strain was designated SOS-R3. Further improvements were obtained by deleting the mdaB, ycaK, and yieF genes to minimise background metabolism, and by introducing transcriptional terminators to the pANODUET reporter plasmid. This final reporter strain was designated SOS-R4.
Stored glycerols of the 55-membered nitroreductase library in SOS-R4 were thawed and used to inoculate overnight cultures (Lysogeny Broth (LB) amended with 100 μg ml^−1 Ampicillin, 50 μg ml^−1 Spectinomycin, 0.4% glucose) that were incubated at 30° C., 200 rpm for 16 h. The next morning the GFP-SOS assay was commenced by inoculation of 195 μl fresh assay media (LB+100 μg ml^−1 Ampicillin, 50 μg ml^−1 Spectinomycin, 0.2% glucose, 50 μM IPTG) with 15 μl of overnight culture in individual wells of a 96-well plate. Plates were incubated at 30° C., 200 rpm for 2.5 h (pre-challenge period), following which cultures were diluted 1:2 by splitting 50:50 into fresh assay media (+DMSO to 0.5% final concentration) and fresh challenge media (assay media+drug to desired concentration, DMSO to 0.5% final concentration) to final volumes of 80 μl apiece in duplicate on a 384-well plate. Plates were incubated at 30° C., 200 rpm for 6 h (challenge period). GFP expression was determined at excitation 488 nm/emission 509 nm. Turbidity was determined by OD600 and fluorescence data from any replicates not found to be within 15% of the median culture turbidity were discarded.

[4] = system: HCT116, H460, H1299 and SiHa wild type cancer cell lines; assay: Oxic versus anoxic low cell density IC50 assay, wild type cancer cell lines; format: cell-based, human; details: 4 h anoxia during prodrug exposure versus oxic
Procedure: (§3) Compounds were subjected to testing, including low-cell density cytotoxicity assay. Cells (500 cells/well) were seeded in 96-well plates and exposed to prodrug for 4 h, washed, then left to grow for a further 5 days. The SRB assay was employed to determine IC50 values (concentration of prodrug required to inhibit proliferation by 50%). Parental HCT116 cells (HCT116 is a cell line derived from human colon cancer) and cells expressing the example nitroreductase gene nfsA from Escherichia coli were evaluated head-to-head. Parental H1299 cells (H1299 is a cell line derived from lung cancer) and cells expressing the example nitroreductase gene nfsA from Escherichia coli were evaluated head-to-head. Parental HCT116 cells and cells expressing human AKR1C3 were evaluated head-to-head. Parental H1299 cells and cells expressing human AKR1C3 were evaluated head-to-head. In a variation of these assays test compounds were assessed for their ability to give hypoxia-selective cell killing. Here wild type HCT116, H460 (H460 is a cell line derived from lung cancer), H1299 and SiHa cells (SiHa is a cell line derived from cervical cancer) were used in addition to HCT116 cells engineered to over express cytochrome P450 reductase (HCT116 POR), a human one-electron nitroreductase. Low-cell density cytotoxicity assays were performed as above under oxic conditions and compared to experiments where cells were shown 4 h of anoxia during the prodrug exposure period, before being washed free of prodrug and then left to grow for a further 5 days under oxic conditions, as above.

[5] = system: HCT116 MCLs over-expressing AKR1C3; assay: Multicellular layer (MCL) clonogenic assay, HCT116 wild type versus AKR1C3 over-expressing MCLs; format: cell-based, human
Procedure: (§4) In parallel, a three dimensional high-cell density multi-cellular layer (MCL) clonogenic assay was performed. 1×10^6 cells of either 100% HCT-116^WT or containing 97% WT with a minor 3% HCT-116^NTR cell population were seeded into a collagen-coated Teflon microporous membrane and left to grow for 3 days. MCLs were then exposed to prodrug for 5 h. After treatment, MCLs were enzyme dissociated, diluted in fresh medium and plated to determine clonogenic survival. To discriminate clonogenic activator (NTR+) from target (NTR−) colonies, cells were plated in non-selective medium (total cells) and medium containing 1 μM puromycin (activator cells). Colonies were grown for 10 days before staining. Colonies containing >50 cells were counted. A variation of this assay was also used to assess for evidence of AKR1C3-dependent cytotoxicity. Here either 100% HCT-116W^T or 100% HCT-116^AKR1C3 cells were seeded to provide MCLs that were then exposed to prodrug.

[6] = system: HCT116 cells engineered to over-express human aldo-ketoreductase 1C3 (AKR1C3); assay: Low cell density IC50 (SRB) assay, HCT116 wild type versus AKR1C3 over-expressing cells; format: cell-based; details: 4 h exposure
Procedure: as §3

[7] = system: HCT116 POR cell line (over-expressing Cytochrome P450 reductase); assay: Oxic versus anoxic low cell density IC50 assay, HCT116 POR cells; format: cell-based, human; details: HCT116 POR cell line compared with wild type
Procedure: as §3, with “Low-cell density cytotoxicity assays were performed as above under oxic conditions and compared to experiments where cells were shown 4 h of anoxia during the prodrug exposure period, before being washed free of prodrug and then left to grow for a further 5 days under oxic conditions, as above.” left out

[8] = system: H1299 cells engineered to over-express E coli NfsA; assay: Low cell density IC50 (SRB) assay, H1299 wild type versus E coli NfsA over-expressing cells; format: cell-based, human
Procedure: as §3

[9] = system: bacterial nitroreductases from the NfsA and NfsB families; assay: GFP SOS assay with nitroreductase over-expression library; format: cell-based, E. coli strain SOS-R4; details: single and poly mutated variants of NfsA_Ec, single-mutated variant of NfsA_Bs
[10] = system: HCT116 cells engineered to over-express E coli NfsA; assay: Low cell density IC50 (SRB) assay, HCT116 wild type versus E coli NfsA over-expressing cells; format: cell-based, human
Procedure: as §3

[11] = system: HCT116 MCLs with 3% E coli NfsA-expressing cells; assay: MCL clonogenic bystander assay, HCT116 MCLs seeded with 3% E coli NfsA-expressing cells; format: cell-based, human; details: 97% wild type HCT116, 3% E coli NfsA-expressing cells
Procedure: as §4

With CN(CCOP(=O)(O)O)C(=O)c1cc(N(CCBr)CCBr)c(S(C)(=O)=O)cc1[N+](=O)[O-] [compound 10, 2-(5-(bis(2-bromoethyl)amino)-N-methyl-4-(methylsulfonyl)-2-nitrobenzamido)ethyl dihydrogen phosphate] as the molecule, how does the “E coli NfsA mediated anti-tumour efficacy (mean tumour volume)” value [1] read?
The value was “display significant E coli NfsA mediated anti-tumour efficacy”.

And the tumour growth delay [2]?
The tumour growth delay was “profound tumour growth delay”.

And the “E coli NfsA mediated anti-tumour efficacy (mean tumour volume)” value [2]?
Its value is “display significant E coli NfsA mediated anti-tumour efficacy”.

For CN(CCO)C(=O)c1cc(N(CCBr)CCBr)c(S(C)(=O)=O)cc1[N+](=O)[O-] [compound 14, 5-(bis(2-bromoethyl)amino)-N-(2-hydroxyethyl)-N-methyl-4-(methylsulfonyl)-2-nitrobenzamide], which “metabolism by bacterial nitroreductases (SOS response)” value [3] is on record?
The value was “substrates for multiple wild type and mutant bacterial nitroreductases from the NfsA and NfsB families”.

What about the hypoxia-dependent cytotoxicity [4] of the same molecule?
The hypoxia-dependent cytotoxicity was “increased cytotoxicity in cells under hypoxia”.

What about the “AKR1C3-dependent clonogenic cell kill in MCLs” value [5] of the same molecule?
Its value is “do not cause AKR1C3-dependant cytotoxicity”.

And the “AKR1C3-mediated cytotoxicity (IC50 wild type versus AKR1C3)” value [6]?
The value was “less susceptible to AKR1C3-mediated cytotoxicity than PR-104A”.

What about the “Hypoxic Cytotoxicity Ratios (HCR)” value [7] of the same molecule?
Its value is “Larger HCRs; also recorded: The degree of this effect was increased”.

What about the “E coli NfsA-mediated cytotoxicity (IC50 wild type versus NfsA)” value [8] of the same molecule?
The value was “produce E coli NfsA-mediated cytotoxicity”.

What about the “activity with mutated nitroreductase variants” value [9] of the same molecule?
The value was “demonstrated”.

What about the “E coli NfsA-mediated cytotoxicity (IC50 wild type versus NfsA)” value [10] of the same molecule?
The value was “produce E coli NfsA-mediated cytotoxicity”.

And the “bystander cell killing in MCLs” value [11]?
Its value is “display evidence of metabolism by the 3% E coli NfsA-expressing cells with bystander cell killing of the 97% non-expressing neighbour cells”.

What does the source list for CCS(=O)(=O)c1cc([N+](=O)[O-])c(C(=O)N(C)CCO)cc1N(CCBr)CCBr [compound 18, 5-(bis(2-bromoethyl)amino)-4-(ethylsulfonyl)-N-(2-hydroxyethyl)-N-methyl-2-nitrobenzamide]?
metabolism by bacterial nitroreductases (SOS response) [3]: substrates for multiple wild type and mutant bacterial nitroreductases from the NfsA and NfsB families; hypoxia-dependent cytotoxicity [4]: increased cytotoxicity in cells under hypoxia; AKR1C3-dependent clonogenic cell kill in MCLs [5]: do not cause AKR1C3-dependant cytotoxicity; AKR1C3-mediated cytotoxicity (IC50 wild type versus AKR1C3) [6]: less susceptible to AKR1C3-mediated cytotoxicity than PR-104A; E coli NfsA-mediated cytotoxicity (IC50 wild type versus NfsA) [8]: produce E coli NfsA-mediated cytotoxicity; activity with mutated nitroreductase variants [9]: demonstrated; E coli NfsA-mediated cytotoxicity (IC50 wild type versus NfsA) [10]: produce E coli NfsA-mediated cytotoxicity; bystander cell killing in MCLs [11]: display evidence of metabolism by the 3% E coli NfsA-expressing cells with bystander cell killing of the 97% non-expressing neighbour cells

Which “E coli NfsA mediated anti-tumour efficacy (mean tumour volume)” value [1] does the source give for CS(=O)(=O)OCCN(CCBr)c1ccc([N+](=O)[O-])cc1C(=O)NCCOP(=O)(O)O [compound 60, 2-((2-bromoethyl)(4-nitro-2-((2-(phosphonooxy)ethyl)carbamoyl)phenyl)amino)ethyl methanesulfonate] here?
Its value is “display significant E coli NfsA mediated anti-tumour efficacy”.

What about the tumour growth delay [2] of the same molecule?
The tumour growth delay was “profound tumour growth delay”.

And the “E coli NfsA mediated anti-tumour efficacy (mean tumour volume)” value [2]?
The value was “display significant E coli NfsA mediated anti-tumour efficacy”.

With CS(=O)(=O)c1cc([N+](=O)[O-])c(C(=O)NCCO)cc1N(CCBr)CCBr [compound 301, 5-(bis(2-bromoethyl)amino)-N-(2-hydroxyethyl)-4-(methylsulfonyl)-2-nitrobenzamide] as the molecule, how does the hypoxia-dependent cytotoxicity [4] read?
Its hypoxia-dependent cytotoxicity is “increased cytotoxicity in cells under hypoxia”.
